Test results published in PMC12196264, “Design and Synthesis of Pyridine-Based Pyrrolo[2,3-d]pyrimidine Analogs as CSF1R Inhibitors: Molecular Hybridization and Scaffold Hopping Approach” (Pharmaceuticals, 2025).

How the values were obtained:
panel of 50 kinases = assay: Kinase panel selectivity; type: biochemical; conditions: 1 μM
Experimental: To further evaluate potential off-target activity, compound 14c was screened against a panel of 50 kinases at a concentration of 1 μM. […] Inhibitor selectivity can be quantified using the selectivity score (S-score), which assumes that low inhibitory activity is clinically irrelevant. The S-score is calculated by dividing the number of kinases inhibited above a defined threshold by the total number of kinases tested. […] Further details on the selectivity data can be found in SI (Table S1). […]
(§1) Ta b l e S 1. Inhibition (%) by compound 14c towards di7erent kinases. Values are average of two
(§2) measurements at 1000 nM test concentration. The ATP concentration was equal to KM.
(§3) Kinase ATP conc. % inhibition

[1] = Microsomal stability, human liver microsomes; type: in vitro ADME; conditions: human liver microsome
Experimental: The aqueous solubility of the compounds and metabolic stability under oxidative conditions was performed as described previously.

MDCK permeability assay = type: in vitro ADME, canine; conditions: dog, MDCK monolayer
Experimental: Six selected compounds were assessed for metabolic stability (clearance) in mouse liver microsomes (MLM) and human liver microsomes (HLM), and apparent permeability (Papp) using a MDCK permeability assay. […] Although currently limited by solubility and permeability, its metabolic profile provides a starting point for targeted structural modifications aimed at overcoming these challenges.

CSF1R [2] = target: T1, CSF1R (Homo sapiens, UniProt P07333); assay: CSF1R enzymatic inhibitory assay (TR-FRET LANCE Ultra); type: biochemical; conditions: single eight-point titrations, ATP 25 μM, R^2 of fit in parentheses
Experimental: The TR-FRET-based LANCE Ultra assay (Perkin Elmer, Waltham, MA, USA) was used to determine IC50 values for various CSF1R inhibitors. Kinase activity and inhibition in this assay was measured as previously reported. Scigilian Analyze software version 5.8.5.15 (Scigilian, Montreal, QC, Canada) was used.

FER = FER (Homo sapiens, UniProt P16591); assay: Kinase panel; type: biochemical
Experimental: as §1, §2, §3

AKT1 = AKT1 (Homo sapiens, UniProt P31749); assay: Kinase panel; type: biochemical
Experimental: as §1, §2, §3

MUSK = MUSK (Homo sapiens, UniProt O15146); assay: Kinase panel; type: biochemical
Experimental: as §1, §2, §3

TEK = TEK (Homo sapiens, UniProt Q02763); assay: Kinase panel; type: biochemical
Experimental: as §1, §2, §3

BTK = BTK (Homo sapiens, UniProt Q06187); assay: Kinase panel; type: biochemical
Experimental: as §1, §2, §3

Aurora B = Aurora B (Homo sapiens, UniProt Q96GD4); assay: Kinase panel; type: biochemical
Experimental: as §1, §2, §3

PLK1 = PLK1 (Homo sapiens, UniProt P53350); assay: Kinase panel; type: biochemical
Experimental: as §1, §2, §3

FGFR1 = FGFR1 (Homo sapiens, UniProt P11362); assay: Kinase panel; type: biochemical
Experimental: as §1, §2, §3

ALK = ALK (Homo sapiens, UniProt Q9UM73); assay: Kinase panel; type: biochemical
Experimental: as §1, §2, §3

MINK1 = MINK1 (Homo sapiens, UniProt Q8N4C8); assay: Kinase panel; type: biochemical
Experimental: as §1, §2, §3

DYRK1A = DYRK1A (Homo sapiens, UniProt Q13627); assay: Kinase panel; type: biochemical
Experimental: as §1, §2, §3

Aurora A = Aurora A (Homo sapiens, UniProt O14965); assay: Kinase panel; type: biochemical
Experimental: as §1, §2, §3

ROCK1 = ROCK1 (Homo sapiens, UniProt Q13464); assay: Kinase panel; type: biochemical
Experimental: as §1, §2, §3

CSF1R [3] = target: T1, CSF1R; assay: Kinase panel; type: biochemical
Experimental: as §1, §2, §3

LTK = LTK (Homo sapiens, UniProt P29376); assay: Kinase panel; type: biochemical
Experimental: as §1, §2, §3

NEK1 = NEK1 (Homo sapiens, UniProt Q96PY6); assay: Kinase panel; type: biochemical
Experimental: as §1, §2, §3

KIT = KIT (Homo sapiens, UniProt P10721); assay: Kinase panel; type: biochemical
Experimental: as §1, §2, §3

FLT4 = FLT4 (Homo sapiens, UniProt P35916); assay: Kinase panel; type: biochemical
Experimental: as §1, §2, §3

ERBB4 = ERBB4 (Homo sapiens, UniProt Q15303); assay: Kinase panel; type: biochemical
Experimental: as §1, §2, §3

MKNK1 = MKNK1 (Homo sapiens, UniProt Q9BUB5); assay: Kinase panel; type: biochemical
Experimental: as §1, §2, §3

CAMK1D = CAMK1D (Homo sapiens, UniProt Q8IU85); assay: Kinase panel; type: biochemical
Experimental: as §1, §2, §3

EGFR = EGFR (Homo sapiens, UniProt P00533); assay: Kinase panel; type: biochemical
Experimental: as §1, §2, §3

ABL2 = ABL2 (Homo sapiens, UniProt P42684); assay: Kinase panel; type: biochemical
Experimental: as §1, §2, §3

CHEK1 = CHEK1 (Homo sapiens, UniProt O14757); assay: Kinase panel; type: biochemical
Experimental: as §1, §2, §3

LYN A = LYN A (Homo sapiens, UniProt P07948); assay: Kinase panel; type: biochemical
Experimental: as §1, §2, §3

HCK = HCK (Homo sapiens, UniProt P08631); assay: Kinase panel; type: biochemical
Experimental: as §1, §2, §3

SRC = SRC (Homo sapiens, UniProt P12931); assay: Kinase panel; type: biochemical
Experimental: as §1, §2, §3

CDK1 = CDK1 (Homo sapiens, UniProt P06493); assay: Kinase panel; type: biochemical
Experimental: as §1, §2, §3

GSK3B = GSK3B (Homo sapiens, UniProt P49841); assay: Kinase panel; type: biochemical
Experimental: as §1, §2, §3

ITK = ITK (Homo sapiens, UniProt Q08881); assay: Kinase panel; type: biochemical
Experimental: as §1, §2, §3

FLT3 = FLT3 (Homo sapiens, UniProt P36888); assay: Kinase panel; type: biochemical
Experimental: as §1, §2, §3

FYN = FYN (Homo sapiens, UniProt P06241); assay: Kinase panel; type: biochemical
Experimental: as §1, §2, §3

ABL1 = ABL1 (Homo sapiens, UniProt P00519); assay: Kinase panel; type: biochemical
Experimental: as §1, §2, §3

T1 sequence (P07333 20-972): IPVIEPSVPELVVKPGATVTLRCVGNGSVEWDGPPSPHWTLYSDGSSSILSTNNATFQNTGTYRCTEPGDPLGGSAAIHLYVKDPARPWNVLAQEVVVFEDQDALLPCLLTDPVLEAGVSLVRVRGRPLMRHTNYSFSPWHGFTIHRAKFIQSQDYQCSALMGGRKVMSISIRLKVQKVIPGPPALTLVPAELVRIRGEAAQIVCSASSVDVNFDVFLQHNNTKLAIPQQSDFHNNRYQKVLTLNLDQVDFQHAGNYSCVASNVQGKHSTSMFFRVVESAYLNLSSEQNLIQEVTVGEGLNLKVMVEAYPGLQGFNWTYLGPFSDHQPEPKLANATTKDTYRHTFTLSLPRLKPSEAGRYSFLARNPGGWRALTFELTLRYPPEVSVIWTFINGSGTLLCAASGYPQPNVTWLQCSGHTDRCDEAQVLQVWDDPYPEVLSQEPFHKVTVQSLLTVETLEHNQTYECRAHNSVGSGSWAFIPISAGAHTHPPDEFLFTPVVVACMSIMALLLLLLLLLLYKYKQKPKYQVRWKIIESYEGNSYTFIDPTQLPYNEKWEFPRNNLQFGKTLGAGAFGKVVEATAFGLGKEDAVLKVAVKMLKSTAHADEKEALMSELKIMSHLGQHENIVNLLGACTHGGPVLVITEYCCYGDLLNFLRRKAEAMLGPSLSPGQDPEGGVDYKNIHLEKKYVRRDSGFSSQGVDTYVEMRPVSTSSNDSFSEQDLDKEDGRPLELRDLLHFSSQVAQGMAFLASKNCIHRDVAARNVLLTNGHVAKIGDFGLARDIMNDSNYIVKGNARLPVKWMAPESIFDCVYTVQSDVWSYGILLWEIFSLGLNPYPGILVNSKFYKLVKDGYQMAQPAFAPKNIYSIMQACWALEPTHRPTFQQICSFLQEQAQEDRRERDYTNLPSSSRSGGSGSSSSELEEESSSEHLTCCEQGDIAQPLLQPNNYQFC
Chain of SRC (P12931 whole entry, species assumed): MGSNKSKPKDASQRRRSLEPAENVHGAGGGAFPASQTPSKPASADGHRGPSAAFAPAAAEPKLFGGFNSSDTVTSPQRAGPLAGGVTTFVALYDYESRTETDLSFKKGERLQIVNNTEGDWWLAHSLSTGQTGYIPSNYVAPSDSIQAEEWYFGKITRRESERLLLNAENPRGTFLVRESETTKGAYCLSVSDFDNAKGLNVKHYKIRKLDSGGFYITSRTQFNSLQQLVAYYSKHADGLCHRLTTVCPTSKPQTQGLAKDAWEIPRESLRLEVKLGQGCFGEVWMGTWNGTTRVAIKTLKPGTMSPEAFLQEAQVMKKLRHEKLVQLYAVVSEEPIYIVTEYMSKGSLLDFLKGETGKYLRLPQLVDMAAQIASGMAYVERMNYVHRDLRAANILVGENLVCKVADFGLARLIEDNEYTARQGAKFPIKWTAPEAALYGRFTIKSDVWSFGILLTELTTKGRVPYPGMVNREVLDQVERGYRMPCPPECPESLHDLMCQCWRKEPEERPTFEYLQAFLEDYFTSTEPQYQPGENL
Chain of CAMK1D (Q8IU85 whole entry, species assumed): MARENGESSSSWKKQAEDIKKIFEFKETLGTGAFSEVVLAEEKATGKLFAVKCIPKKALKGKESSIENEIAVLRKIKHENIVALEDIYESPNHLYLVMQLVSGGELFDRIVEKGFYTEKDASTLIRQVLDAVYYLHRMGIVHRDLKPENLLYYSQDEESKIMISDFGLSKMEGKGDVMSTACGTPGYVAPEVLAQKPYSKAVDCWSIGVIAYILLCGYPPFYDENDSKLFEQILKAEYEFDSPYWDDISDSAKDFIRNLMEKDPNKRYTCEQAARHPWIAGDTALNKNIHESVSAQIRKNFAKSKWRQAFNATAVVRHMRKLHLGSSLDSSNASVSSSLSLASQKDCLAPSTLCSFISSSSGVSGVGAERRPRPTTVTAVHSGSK
Chain of FER (P16591 whole entry, species assumed): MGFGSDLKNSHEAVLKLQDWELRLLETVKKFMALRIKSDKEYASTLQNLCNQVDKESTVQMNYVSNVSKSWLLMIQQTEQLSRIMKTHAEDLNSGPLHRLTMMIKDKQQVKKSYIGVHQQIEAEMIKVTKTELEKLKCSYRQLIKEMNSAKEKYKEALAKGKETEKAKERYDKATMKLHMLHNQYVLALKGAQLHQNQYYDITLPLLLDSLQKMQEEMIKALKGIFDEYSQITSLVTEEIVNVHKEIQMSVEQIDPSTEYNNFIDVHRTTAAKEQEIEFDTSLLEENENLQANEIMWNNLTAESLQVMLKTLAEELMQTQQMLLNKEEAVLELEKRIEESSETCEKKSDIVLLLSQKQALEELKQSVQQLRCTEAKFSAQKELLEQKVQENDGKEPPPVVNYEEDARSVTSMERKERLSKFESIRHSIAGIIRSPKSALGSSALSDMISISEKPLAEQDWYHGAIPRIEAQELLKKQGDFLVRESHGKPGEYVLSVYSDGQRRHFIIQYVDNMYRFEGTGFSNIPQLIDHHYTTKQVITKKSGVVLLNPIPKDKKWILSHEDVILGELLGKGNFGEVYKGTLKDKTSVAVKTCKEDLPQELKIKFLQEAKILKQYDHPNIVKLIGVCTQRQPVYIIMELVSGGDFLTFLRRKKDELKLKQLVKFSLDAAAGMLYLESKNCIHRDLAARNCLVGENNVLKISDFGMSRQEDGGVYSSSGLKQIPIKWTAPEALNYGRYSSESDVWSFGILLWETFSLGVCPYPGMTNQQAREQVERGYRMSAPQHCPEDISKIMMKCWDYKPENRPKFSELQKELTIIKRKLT
Chain of PLK1 (P53350 whole entry, species assumed): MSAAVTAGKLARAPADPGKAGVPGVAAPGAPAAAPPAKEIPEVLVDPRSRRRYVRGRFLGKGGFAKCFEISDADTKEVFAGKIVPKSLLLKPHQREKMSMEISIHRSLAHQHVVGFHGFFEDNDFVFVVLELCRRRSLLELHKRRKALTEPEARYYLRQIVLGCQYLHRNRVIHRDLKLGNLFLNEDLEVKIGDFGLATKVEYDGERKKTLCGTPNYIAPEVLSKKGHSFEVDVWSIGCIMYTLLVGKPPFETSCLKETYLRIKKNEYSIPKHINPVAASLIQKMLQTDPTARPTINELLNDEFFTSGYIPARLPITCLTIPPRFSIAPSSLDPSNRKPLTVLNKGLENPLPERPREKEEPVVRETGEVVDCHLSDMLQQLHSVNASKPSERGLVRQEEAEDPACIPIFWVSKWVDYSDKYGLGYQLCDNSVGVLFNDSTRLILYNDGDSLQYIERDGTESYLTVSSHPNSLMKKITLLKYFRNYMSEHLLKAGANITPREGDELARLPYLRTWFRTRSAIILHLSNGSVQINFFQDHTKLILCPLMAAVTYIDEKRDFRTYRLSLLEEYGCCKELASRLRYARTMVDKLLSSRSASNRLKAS
Chain of Aurora A (O14965 whole entry): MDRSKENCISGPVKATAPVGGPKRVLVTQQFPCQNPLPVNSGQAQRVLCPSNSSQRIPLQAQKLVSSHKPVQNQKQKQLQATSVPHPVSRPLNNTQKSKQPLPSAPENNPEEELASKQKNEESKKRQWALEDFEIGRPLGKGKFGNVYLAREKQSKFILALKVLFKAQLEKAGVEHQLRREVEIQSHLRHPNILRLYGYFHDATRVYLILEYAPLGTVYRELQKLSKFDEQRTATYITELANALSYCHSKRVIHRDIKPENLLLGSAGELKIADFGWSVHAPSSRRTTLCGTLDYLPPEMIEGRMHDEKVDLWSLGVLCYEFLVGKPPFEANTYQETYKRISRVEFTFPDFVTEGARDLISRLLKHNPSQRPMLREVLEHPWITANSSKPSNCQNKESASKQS
Chain of FGFR1 (P11362 22-822, species assumed): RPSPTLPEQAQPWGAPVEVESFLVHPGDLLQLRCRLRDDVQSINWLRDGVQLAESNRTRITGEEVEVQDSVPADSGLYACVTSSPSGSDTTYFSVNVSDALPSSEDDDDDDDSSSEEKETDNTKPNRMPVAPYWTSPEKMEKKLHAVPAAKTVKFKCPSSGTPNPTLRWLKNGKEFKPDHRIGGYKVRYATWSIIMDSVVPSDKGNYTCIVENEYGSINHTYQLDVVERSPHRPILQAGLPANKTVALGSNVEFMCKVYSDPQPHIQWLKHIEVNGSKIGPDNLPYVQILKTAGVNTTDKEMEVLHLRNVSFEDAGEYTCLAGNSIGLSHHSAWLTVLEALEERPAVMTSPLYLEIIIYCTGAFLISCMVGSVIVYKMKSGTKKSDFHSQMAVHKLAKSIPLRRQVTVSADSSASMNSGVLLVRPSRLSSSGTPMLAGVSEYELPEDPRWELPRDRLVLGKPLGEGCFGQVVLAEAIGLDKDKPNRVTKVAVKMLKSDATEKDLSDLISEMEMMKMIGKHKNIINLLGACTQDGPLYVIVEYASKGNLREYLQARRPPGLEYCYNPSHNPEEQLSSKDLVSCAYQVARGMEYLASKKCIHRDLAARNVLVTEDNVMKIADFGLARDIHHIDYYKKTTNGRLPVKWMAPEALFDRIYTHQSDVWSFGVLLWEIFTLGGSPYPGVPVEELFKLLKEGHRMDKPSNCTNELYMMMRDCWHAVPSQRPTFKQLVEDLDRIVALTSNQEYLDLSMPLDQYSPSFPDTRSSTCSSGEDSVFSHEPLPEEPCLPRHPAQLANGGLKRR
Chain of LYN A (P07948 whole entry, species assumed): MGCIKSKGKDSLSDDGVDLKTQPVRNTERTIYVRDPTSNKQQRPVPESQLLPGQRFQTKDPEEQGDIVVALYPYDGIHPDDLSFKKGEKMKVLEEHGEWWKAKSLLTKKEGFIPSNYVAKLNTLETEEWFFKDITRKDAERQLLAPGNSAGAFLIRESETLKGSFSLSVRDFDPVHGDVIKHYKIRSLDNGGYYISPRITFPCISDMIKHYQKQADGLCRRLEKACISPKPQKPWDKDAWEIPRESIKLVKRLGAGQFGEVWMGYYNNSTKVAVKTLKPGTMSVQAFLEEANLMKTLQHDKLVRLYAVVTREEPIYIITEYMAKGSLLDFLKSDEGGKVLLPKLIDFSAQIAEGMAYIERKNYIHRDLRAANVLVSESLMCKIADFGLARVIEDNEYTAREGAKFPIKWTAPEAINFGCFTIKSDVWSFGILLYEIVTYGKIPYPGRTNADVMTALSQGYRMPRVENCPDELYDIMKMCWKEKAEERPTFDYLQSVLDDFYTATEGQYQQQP

## Cc1cccc(CN(C)c2ncnc3[nH]c(-c4ccc(NCc5ccc(C(F)(F)F)nc5)nc4)cc23)c1 [Compound 14c, N-Methyl-N-(3-methylbenzyl)-6-(6-(((6-(trifluoromethyl)pyridin-3-yl)methyl)amino)pyridin-3-yl)-7H-pyrrolo[2,3-d]pyrimidin-4-amine]
Panel of 50 kinases
  Selectivity towards CSF1R in kinase panel (in words): high selectivity
[1]
  HLM in vitro intrinsic clearing: 77 µL/min/mg
MDCK permeability assay; A–B direction
  Papp A→B: 5.4 ×10⁻⁶ cm/s
MDCK permeability assay; B–A direction
  Papp B→A: 0.8 ×10⁻⁶ cm/s
MDCK permeability assay; read-out: MDCK Ratio (Papp B–A/A–B)
  efflux ratio: 0.14
CSF1R [2]
  IC50: 7.18 nM
FER
  inhibition at 1 µM: 6%
AKT1
  inhibition at 1 µM: 2%
MUSK
  inhibition at 1 µM: 19%
TEK
  inhibition at 1 µM: 8%
BTK
  inhibition at 1 µM: 13%
Aurora B
  inhibition at 1 µM: 34%
PLK1
  inhibition at 1 µM: 7%
FGFR1
  inhibition at 1 µM: 3%
ALK
  inhibition at 1 µM: 11%
MINK1
  inhibition at 1 µM: 69%
DYRK1A
  inhibition at 1 µM: 4%
Aurora A
  inhibition at 1 µM: 7%
ROCK1
  inhibition at 1 µM: -1%
CSF1R [3]
  inhibition at 1 µM: 95%
LTK
  inhibition at 1 µM: 15%
NEK1
  inhibition at 1 µM: 16%
KIT
  inhibition at 1 µM: 18%
FLT4
  inhibition at 1 µM: 2%
ERBB4
  inhibition at 1 µM: 2%
MKNK1
  inhibition at 1 µM: 1%
CAMK1D
  inhibition at 1 µM: 8%
EGFR
  inhibition at 1 µM: 57%
ABL2
  inhibition at 1 µM: 75%
CHEK1
  inhibition at 1 µM: 11%
LYN A
  inhibition at 1 µM: 18%
HCK
  inhibition at 1 µM: 16%
SRC
  inhibition at 1 µM: 43%
CDK1
  inhibition at 1 µM: 12%
GSK3B
  inhibition at 1 µM: 11%
ITK
  inhibition at 1 µM: 8%
FLT3
  inhibition at 1 µM: 26%
FYN
  inhibition at 1 µM: 16%
ABL1
  inhibition at 1 µM: 71%
